In PubChem BioAssay (NCI):
Where “and” joins values, the source holds several entries; their conditions need not be identical. Identical values can stand only once.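 48-hour exposure; five concentrations; linearly interpolated endpoints. Abbreviation: GI50, concentration required for 50% inhibition of growth. TGI: total growth inhibition.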

Experiments:
Assay in all cases: NCI tumour cell line growth inhibition, 48 h
[1] = test system: KM20L2 colon
[2] = test system: XF 498 CNS
[3] = test system: LXFL 529 NSCLC
[4] = test system: DLD-1 colon
[5] = test system: DMS 273 small cell lung
[6] = test system: RXF-631 renal
[7] = test system: DMS 114 small cell lung
[8] = test system: HOP-18 NSCLC
[9] = test system: MDA-N

SMILES	TGI [1]	TGI [2]	TGI [3]	TGI [4]	TGI [5]	TGI [6]	TGI [7]	TGI [8]	TGI [9]	GI50 [1]	GI50 [4]	GI50 [5]	GI50 [9]
O=C(Nc1nc2ccc([N+](=O)[O-])cc2s1)C(=O)C(C(=O)c1ccncc1)C1OC(=O)c2ccccc21 (stereo not drawn)	> 100 µM	> 100 µM	> 100 µM	> 100 µM	> 100 µM	> 100 µM	> 100 µM	> 100 µM					
CN(C)CCSCCO									> 100 µM				
O=C1C(=O)N(c2nccs2)C(=O)C(=O)C1c1nc2ccccc2s1	> 100 µM	> 100 µM	> 100 µM	> 100 µM	> 100 µM		> 100 µM	> 100 µM					
S=c1sc2cscc2s1	66.5 µM	49.9 µM	38.6 µM	50.6 µM	> 100 µM	61 µM	45.2 µM	67.2 µM					
O=C(NC1C2CC3CC(C2)CC1C3)/C(Cl)=C1/Sc2ccccc2NC1=O (stereo not drawn)	> 100 µM	> 100 µM	> 100 µM	> 100 µM	> 100 µM		> 100 µM	> 100 µM					
OCC(O)C(O)C(O)c1nn(-c2ccccc2)c2nc3cc(Cl)c(Cl)cc3nc12 (stereo not drawn)	> 100 µM	69.3 µM	> 100 µM	> 100 µM	> 100 µM		> 100 µM	> 100 µM					
Cc1cnccc1N=Nc1ccc(N(C)C)cc1									69.3 µM				
CS(=O)(=O)N(CCC#N)c1ccc(C=O)cc1	> 100 µM	> 100 µM	> 100 µM		> 100 µM		> 100 µM						
COc1ccc2c(CCNC(=O)/C=C/c3ccccc3)c(C(C)=O)[nH]c2c1[N+](=O)[O-]	> 100 µM		> 100 µM		29.2 µM	28.4 µM	> 100 µM						
O=C(O)c1ccccc1N=Nc1ccc2oc(=O)c(C(=O)Nc3ccccc3)cc2c1	83.9 µM	> 100 µM		> 100 µM	> 100 µM		76.9 µM	> 100 µM					
O=c1cccccc1[O-].O=c1cccccc1[O-].O=c1cccccc1[O-].[Ce+3]	> 100 µM			> 100 µM	> 100 µM					24.1 µM	16.7 µM	11.4 µM	
Cc1ccccc1C(=O)Oc1ccc(OCc2ccccc2)cc1	> 100 µM	> 100 µM	> 100 µM	> 100 µM	> 100 µM		> 100 µM	> 100 µM					
COC12CCC(C(C(=O)c3ccccc3)=C1C(=O)c1ccccc1)C(O)C2 (stereo not drawn)		> 100 µM	> 100 µM	> 100 µM	> 100 µM	> 100 µM	> 100 µM						
CN(CC(=O)O)Cc1oc(CO)cc(=O)c1O									> 100 µM				
C=C1C(=O)OC2/C=C(\CO)CC/C=C(\CO)CC(OC(=O)C(C)C)C12 (stereo not drawn)									17.9 µM				
CCOC(=O)c1ccc(N2C(=O)Cc3ccccc3C2=O)cc1	> 100 µM		> 100 µM		> 100 µM		> 100 µM						
CCc1ccc2nccc(NCCCN(C)C)c2c1[N+](=O)[O-]									> 100 µM				
Cc1nc2c(N3CCCC3)nc(N3CCNCC3)nc2nc1NCc1ccccc1									9.44 µM and 3.28 µM				4.38 µM
CC1(C(=O)O)CCOc2ccccc21 (stereo not drawn)	> 100 µM		> 100 µM	> 100 µM			> 100 µM	> 100 µM					
CCOC(=O)C1=C(Nc2ccc(Br)cc2)OC/C1=N\NC(=O)c1ccccc1O	> 100 µM		> 100 µM	97.3 µM	17 µM			> 100 µM					

SMILES	TGI [1]	TGI [2]	TGI [3]	TGI [4]	TGI [5]	TGI [6]	TGI [7]	TGI [8]	TGI [9]	GI50 [1]	GI50 [4]	GI50 [5]	GI50 [9]
NCc1c(C(N)=O)ncn1Cc1ccccc1	> 100 µM	> 100 µM	> 100 µM		> 100 µM		> 100 µM	> 100 µM					
OCC(CCc1c[nH]c2ccccc12)c1c[nH]c2ccccc12 (stereo not drawn)									31 µM				
CCOC(=O)C(C)(C)Oc1ccc2c(-c3ccc(Cl)cc3)c(-c3ccc(Cl)cc3)c(=O)oc2c1	> 100 µM		> 100 µM	> 100 µM	> 100 µM	> 100 µM	> 100 µM						
COc1cccc(N=N/C(=N\NC(=O)c2cc(Br)ccc2O)c2ccc(N(CCC#N)CCC#N)cc2OC)c1									> 150 µg/mL				59.3 µg/mL
CC(=O)[O-].[Zn].c1ccc(/C(=N\Nc2ccccn2)c2ccccn2)cc1	1.75 µM		1.79 µM	2.49 µM	1.88 µM		0.0192 µM	0.918 µM					
COc1nc2c(nc(N)n2C2OCC(O)C(O)C2O)c(=O)n1C (stereo not drawn)	> 100 µM	> 100 µM	> 100 µM	> 100 µM			> 100 µM	> 100 µM					
Clc1cc(-c2ccccc2)nc2ccccc12									> 100 µM				
Nc1cc(S(N)(=O)=O)ccc1SSc1ccc(S(N)(=O)=O)cc1N									> 100 µM				
O=C(CNc1ccc2c(=S)c3ccccc3[nH]c2c1)Nc1ccccc1-c1ccccc1NC(=O)CNc1ccc2c(=S)c3ccccc3[nH]c2c1	47.4 µM	41.1 µM	24.6 µM	23.9 µM	> 76.3 µM		36.6 µM	29.9 µM	> 51.3 µM				
CCOC(=O)N1C(c2ccccc2)C=CC(c2ccccc2)N1C(=O)OCC (stereo not drawn)	> 100 µM	> 100 µM		> 100 µM			> 100 µM	> 100 µM					
CS/C(c1ccccc1)=[N+](\[O-])Cc1ccccc1	> 100 µM	> 100 µM	> 100 µM	> 100 µM			> 100 µM	> 100 µM					
COc1cc(/C=C\c2ccc(Br)cc2)cc(OC)c1OC			> 100 µM	> 100 µM	13.8 µM	> 100 µM	69.1 µM						
Cc1ccc(C2=C(c3ccc(C)cc3)C(c3ccc(C)cc3)=C(c3ccc(C)cc3)C2=O)cc1	> 100 µM	> 100 µM	> 100 µM	> 100 µM		> 100 µM		> 100 µM					
CCn1c(=O)c2ccccc2n2c(=O)c3cc4ccccc4cc3nc12	> 100 µM	49 µM	> 100 µM	> 100 µM	> 100 µM		> 100 µM						
CC(=O)OC1CCC2C(=CCC3C2(C)C(=O)CC2(C)C(C4(C)OC(C(C)C)=CC4=O)C(O)CC32C)C1(C)C (stereo not drawn)	51.4 µM	> 100 µM	92.1 µM	> 100 µM	58.3 µM		57.8 µM						
N#Cc1ccc(Oc2cccc(Oc3ccccc3)c2)cc1C#N	> 100 µM		> 100 µM	> 100 µM		> 100 µM	> 100 µM			> 100 µM	> 100 µM		
c1ccc(B2OCC(C3OB(c4ccccc4)OC4COB(c5ccccc5)OC43)O2)cc1 (stereo not drawn)									> 100 µM				
O=C(N/C(=C\c1ccc(/C=C(\NC(=O)c2ccccc2)c2nc3ccccc3s2)cc1)c1nc2ccccc2s1)c1ccccc1	11.2 µM		10.9 µM	12 µM	10.8 µM	20.6 µM	25.9 µM	26 µM					
CC(=O)/C=C1\CC(=O)Nc2ccccc2N1	> 100 µM		> 100 µM	> 100 µM			> 100 µM						
